Reference: ChEMBL document CHEMBL4706688 (J Med Chem, 2021)

Key:
[1] = biological target: T1, Tyrosine-protein kinase JAK2 (Homo sapiens, UniProt O60674); conditions: HEK293F, dose 100.0 µM
cells = type: functional, tissue-based, UKE-1; conditions: Homo sapiens, UKE1, 72 h
[2] = biological target: T1, Tyrosine-protein kinase JAK2; assay: biochemical

T1 sequence (O60674 whole entry): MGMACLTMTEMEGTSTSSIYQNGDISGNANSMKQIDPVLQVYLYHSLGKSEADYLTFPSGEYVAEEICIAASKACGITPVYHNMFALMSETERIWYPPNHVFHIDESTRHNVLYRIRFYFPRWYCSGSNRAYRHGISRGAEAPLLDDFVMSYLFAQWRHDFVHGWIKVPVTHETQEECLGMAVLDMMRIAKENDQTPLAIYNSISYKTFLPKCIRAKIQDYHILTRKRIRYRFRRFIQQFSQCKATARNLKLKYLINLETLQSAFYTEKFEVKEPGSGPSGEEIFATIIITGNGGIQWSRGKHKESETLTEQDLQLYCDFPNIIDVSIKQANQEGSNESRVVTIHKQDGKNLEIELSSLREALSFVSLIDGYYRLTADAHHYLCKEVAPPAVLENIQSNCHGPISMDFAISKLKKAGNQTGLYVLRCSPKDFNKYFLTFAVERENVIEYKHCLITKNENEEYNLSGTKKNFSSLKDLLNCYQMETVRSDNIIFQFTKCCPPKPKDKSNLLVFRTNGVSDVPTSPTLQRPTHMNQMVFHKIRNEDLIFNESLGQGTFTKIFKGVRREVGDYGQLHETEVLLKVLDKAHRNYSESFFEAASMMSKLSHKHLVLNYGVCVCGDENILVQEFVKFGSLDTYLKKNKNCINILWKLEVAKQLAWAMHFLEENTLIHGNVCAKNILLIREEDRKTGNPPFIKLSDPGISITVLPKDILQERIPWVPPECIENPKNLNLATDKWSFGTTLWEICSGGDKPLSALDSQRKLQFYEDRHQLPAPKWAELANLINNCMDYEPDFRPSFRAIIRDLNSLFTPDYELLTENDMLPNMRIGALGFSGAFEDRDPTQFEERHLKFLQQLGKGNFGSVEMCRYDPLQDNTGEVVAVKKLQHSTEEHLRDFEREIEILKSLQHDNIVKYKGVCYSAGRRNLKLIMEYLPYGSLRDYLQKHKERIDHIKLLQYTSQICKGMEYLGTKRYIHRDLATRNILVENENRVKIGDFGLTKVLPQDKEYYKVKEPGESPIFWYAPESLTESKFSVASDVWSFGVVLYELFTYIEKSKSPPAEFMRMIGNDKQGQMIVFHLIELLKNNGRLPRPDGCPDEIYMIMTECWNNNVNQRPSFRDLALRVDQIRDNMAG

ΔTm [1] [°C] | IC50 (cells) [nM] | Structure (SMILES) | IC50 [2] [nM]
4.3 | 210 | Cc1cnc(Nc2ccc(C3CCN(C)CC3)c(F)c2)nc1Nc1ccc2c(c1)N(S(=O)(=O)C(C)(C)C)CC2 | 
8.3 |  | N#CC[C@@H](C1CCCC1)n1cc(-c2nc(Nc3ccc(C4CCNCC4)cc3)nc3[nH]ccc23)cn1 | 
6.4 | 620 | C=CCCn1cc(-c2nc(Nc3ccc(C4CCNCC4)cc3)nc3[nH]ccc23)cn1 | 
7 | 4500 | N#CCCn1cc(-c2nc(Nc3ccc(C4CCNCC4)cc3)nc3[nH]ccc23)cn1 | 
 | 660 | Cc1cnc(Nc2ccc(OCCN3CCCC3)cc2)nc1Nc1cccc(S(=O)(=O)NC(C)(C)C)c1 [FEDRATINIB] | 
12 |  | N#CC[C@H](C1CCCC1)n1cc(-c2nc(Nc3ccc(C4CCNCC4)cc3)nc3[nH]ccc23)cn1 | 

Structure (SMILES) | ΔTm [1] [°C] | IC50 (cells) [nM] | IC50 [2] [nM]
N#CCC(C1CCCC1)n1cc(-c2nc(Nc3ccc(C4CCNCC4)cc3)nc3[nH]ccc23)cn1 (racemic) | 11.8 |  | < 0.05
Cc1cnc(Nc2cc(F)c(C3CCN(C)CC3)c(F)c2)nc1Nc1ccc(F)c(NS(=O)(=O)C(C)(C)C)c1 | 3.2 | 150 | 
Cc1cnc(Nc2ccc(C3CCN(C)CC3)c(F)c2)nc1Nc1ccc(F)c(NS(=O)(=O)C(C)(C)C)c1 | 3.1 | 200 | 
